Laboratory results from patent US8389739B1, “Modulators of retinoid-related orphan receptor gamma” (Orphagen Pharmaceuticals, priority 2006, dated 2013).
Where two headings read alike, the source gives them in different places. Values belong to the compound of their own block, whether it stands above or below them.

Columns and labels:
[1] = target: T1, mRORγ (Mus musculus, UniProt P51450); experiment: Transcriptional assay, Gal4-mRORγ with luciferase reporter in CHO cells; assay type: cell-based
T1 construct: expressed in transfected cells; host or cells: CHO cells, transient transfection
Description: The complete Gal4-mRORγ nucleotide sequence is shown below:
(§1) A firefly luciferase reporter gene for Gal4 DBD hybrid receptors, such as Gal4-RORγ, contains five copies of the Gal4 17-mer response element in its promoter and the coding sequence for firefly luciferase (pG5-luc, Promega). CHO (Chinese Hamster Ovary) cells were cultured in Ham's F12 medium supplemented with 10% fetal calf serum (Gemini Biologicals), 10 μg/ml penicillin and streptomycin, and were maintained in a humidified 37° C. incubator (Thermo Electron, Steri-Cycle) with 5% CO2. 24 hours before transfection, cells were plated in T175 flasks (5×10^6 cells/flask) or T75 flasks (1.7×10^6 cells/flask). Transient transfection of CHO cells was performed using TransIT-CHO reagents (Minis, Madison, Wis.) with a mixing ratio of 2:6:1 between plasmid DNA (in μg), TransIT-CHO (in μl) and CHO-mojo (in μl).
(§2) Plates are maintained at 37° C. in a humidified atmosphere with 7% CO2 overnight. Four (4) hours after cell seeding, compounds dissolved in DMSO at 10 mM were added to cells at final concentrations of 20 micromolar (μM) to 20 nanomolar (nM) in 0.2% DMSO in triplicate plates. Approximately 40 hours later, cytotoxicity in the assay well was characterized by addition of the dye resazurin (O'Brien, Wilson et al. 2000) to a final concentration of 3 μM. […] Percent viability was determined as 2 hour fluorescence, minus background at t=0 hours, normalized to DMSO controls. For detection of luciferase activity, media was removed from plates after the measurement of resazurin conversion, and SteadyLite luciferase reagent (Perkin-Elmer) was added (30 μl/well). Luminescence is detected with a Victor 2-V plate reader (Perkin-Elmer) and normalized to luciferase activity of DMSO control wells alone.

[2] = target: T2, mRORγ LBD (Mus musculus, UniProt P51450); experiment: Biochemical assay, coregulatory peptide recruitment to GST-RORγ LBD (FRET)
T2 construct: made in house; host or cells: Sf9 insect cells, baculovirus; cleared lysate used directly
T2 sequence (P51450 251-516): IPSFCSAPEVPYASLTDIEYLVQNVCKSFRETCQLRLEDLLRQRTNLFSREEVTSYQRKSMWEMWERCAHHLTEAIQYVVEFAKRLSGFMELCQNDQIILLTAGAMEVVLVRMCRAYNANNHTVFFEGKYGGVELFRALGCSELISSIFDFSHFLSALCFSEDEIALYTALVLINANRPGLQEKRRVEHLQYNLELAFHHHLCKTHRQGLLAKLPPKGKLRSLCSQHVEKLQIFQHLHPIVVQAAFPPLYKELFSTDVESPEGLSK
Source text: GST-RORγ was generated by subcloning the RORγ-LBD into pET-41a, a vector which expresses GST fusion proteins in bacteria.
The cloning steps for GST-RORγ were as follows. The mRORγ LBD was excised from Gal4-mRORγ (see above for cloning steps) at BamHI and HindIII sites of Sequence 1 and cloned into the corresponding sites of pET-41a(+) (EMD Biosciences, San Diego, Calif.). A GST-mRORγ fragment was then excised from pET-41a(+) at XbaI and XhoI sites and cloned into a pcDNA3.1vector (Invitrogen, Carlsbad, Calif.) restricted at NheI and XhoI sites. Plasmid GST-mRORγ-pcDNA3.1 was used as a PCR template to generate a GST-mRORγ fragment that was later cloned into pENTR/D-TOPO vector (Invitrogen, Carlsbad, Calif.) by standard cloning techniques recommended by the manufacturer of the vector. The nucleotide sequence of GST-mRORγ is shown below:
For baculoviral expression of RORγ, the cDNA fragment of GST-RORγ— LBD, was subcloned from pET-41a into the pENTR/D-TOPO vector using a commercially-available kit (BaculoDirect, Invitrogen). Briefly, GST-RORγ carried by pENTR/D-TOPO was transfected into mono-layer Sf9 cells (8×10^5/well in 6-well plates) by Cellfectin (Invitrogen). Sf9 cells were incubated at 27° C. in a non-humidified incubator for 72 hours. Cell media was collected as P1 viral stock and used to further infect Sf9 cells to generate P2 and P3 virus. […] A plaque assay was performed to determine the titer of P3 virus and to isolate single plaques. P4 virus was generated from a single plaque and propagated on a larger scale.
Adherent SF9 cells were infected with baculovirus carrying GST-RORγ and were cultured for 72 hours. Sf9 cell were then subject to a brief sonication in a lysis buffer (20 mM phosphate, pH 6.8, 50 mM KCl, 50 mM NaCl, 0.5 mM EDTA, 50% glycerol, 0.001% NP-40 and 1 mM DTT) and centrifuged at 3000 rpm for 15 minutes. […] Cleared cell lysate was stored at −70° C. and is directly utilized in the coregulatory peptide recruitment assay.
The labeled probes anti-GST-APC and SA-RPE were purchased from Prozyme (San Leandro, Calif.). Compounds were added directly from a DMSO solution to a final concentration of 1-2% DMSO. Fluorescence was measured on a Wallac Victor 2 V plate reader equipped with a 670/40 nm filter (Omega Optical, Brattleboro, Vt.) for APC emission (Channel A) and a 600/25 bandpass filter for monitoring the RPE emission (Channel B).

[3] = target: T3, mLXRα (Liver X receptor alpha) (Mus musculus, UniProt Q9Z0Y9); experiment: Transcriptional assay of LXRα (Gal4-LXRα hybrid); assay type: cell-based; conditions: for EC50: Table 7, no unit printed for this column (b114 gives 1.5 μM for OR-1050), read-out: Transcriptional Assay of LXRα EC50; for specificity for RORγ versus LXRα: comparison of transcriptional assays for RORγ and LXRα (Table 7)
T3 construct: 172-455; expressed in transfected cells; host or cells: CHO cells, transient transfection
T3 sequence (Q9Z0Y9 172-445 limits assumed): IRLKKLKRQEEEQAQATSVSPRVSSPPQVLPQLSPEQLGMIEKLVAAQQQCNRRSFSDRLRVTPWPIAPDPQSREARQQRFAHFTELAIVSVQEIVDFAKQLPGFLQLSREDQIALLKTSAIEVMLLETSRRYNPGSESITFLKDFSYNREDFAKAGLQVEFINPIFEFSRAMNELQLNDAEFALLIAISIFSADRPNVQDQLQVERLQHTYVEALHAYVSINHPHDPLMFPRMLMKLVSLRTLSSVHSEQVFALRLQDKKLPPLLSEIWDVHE
Description: as §1, §2
A transcriptional assay for LXRα, using a Gal4-LXRα hybrid, was implemented in order to compare RORγ ligand potencies. In addition to LXRα, transcriptional assays for a number of other major nuclear receptors were developed.

[4] = Table 2, agonists, antagonist OR-376 (1.5 μM) added to reduce basal transcriptional activity, read-out: EC50 in micromolar at mRORγ Transcriptional
[5] = Table 1, antagonists, inhibition of basal Gal4-mRORγ transcription in CHO cells, read-out: Assay EC50 in micromolar at mRORγ Transcriptional
[6] = Table 7, taken from Table 1, read-out: Assay EC50 in micromolar at mRORγ Transcriptional
[7] = Table 1, mRORγ and peptide K1, read-out: Assay EC50 in micromolar at mRORγ Biochemical
[8] = Table 7, taken from Table 1 (peptide K1), read-out: Assay EC50 in micromolar at mRORγ Biochemical
[9] = Table 2, agonists, biotinylated peptide K, 50% of estimated maximum FRET signal, read-out: EC50 in micromolar at mRORγ Biochemical

T1 sequence (P51450 with tags, fused parts or gaps): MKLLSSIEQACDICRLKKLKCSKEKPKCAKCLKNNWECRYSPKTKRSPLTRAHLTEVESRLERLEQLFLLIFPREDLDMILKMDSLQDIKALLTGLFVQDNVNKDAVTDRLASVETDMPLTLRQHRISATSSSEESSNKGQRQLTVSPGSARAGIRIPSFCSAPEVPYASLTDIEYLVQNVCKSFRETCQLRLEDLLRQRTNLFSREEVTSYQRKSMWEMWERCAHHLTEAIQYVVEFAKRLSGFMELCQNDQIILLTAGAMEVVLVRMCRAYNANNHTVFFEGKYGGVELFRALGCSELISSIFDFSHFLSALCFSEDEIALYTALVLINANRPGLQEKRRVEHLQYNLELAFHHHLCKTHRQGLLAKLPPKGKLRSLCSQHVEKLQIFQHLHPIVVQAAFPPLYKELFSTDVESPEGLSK

EC50 [1, 4]: 4.1 µM
Compound: CC(=O)CCC(C)C1CCC2C3CC(O)C4CC(O)CCC4(C)C3CCC12C (centres unmarked) [OR-12870, 5-(3,6-Dihydroxy-10,13-dimethyl-hexadecahydro-cyclopenta[a]phenanthren-17-yl)-hexan-2-one]

EC50 [1, 4]: 6 µM | EC50 [2, 9]: 0.23 µM
Compound: COCCCC(C)C1CCC2C3CC(O)C4CC(O)CCC4(C)C3CCC12C (centres unmarked) [OR-12864, 17-(4-Methoxy-1-methyl-butyl)-10,13-dimethyl-hexadecahydro-cyclopenta[a]phenanthrene-3,6-diol]

EC50 [1, 4]: 8.3 µM | EC50 [2, 9]: 0.25 µM
Compound: CC(O)CCC(C)C1CCC2C3CC(O)C4CC(O)CCC4(C)C3CCC12C (centres unmarked) [OR-12871, 17-(4-Hydroxy-1-methyl-pentyl)-10,13-dimethyl-hexadecahydro-cyclopenta[a]phenanthrene-3,6-diol]

EC50 [1, 4]: > 20 µM
Compound: CNC(=O)CCC(C)C1CCC2C1CCC1C3CCC(O)CC3C(O)CC21 (centres unmarked) [OR-12867, 4-(3,6-Dihydroxy-hexadecahydro-cyclopenta[a]phenanthren-17-yl)-pentanoic acid methylamide]

EC50 [1, 4]: 5.2 µM | EC50 [2, 9]: 0.56 µM
Compound: CC(CCC(=O)N(C)C)C1CCC2C3CC(O)C4CC(O)CCC4(C)C3CCC12C (centres unmarked) [OR-12868, 4-(3,6-Dihydroxy-10,13-dimethyl-hexadecahydro-cyclopenta[a]phenanthren-17-yl)-pentanoic acid dimethylamide]

EC50 [1, 4]: 0.56 µM | EC50 [2, 9]: 0.14 µM
Compound: COC(C)(C)CCC(C)C1CCC2C3CC(O)C4CC(O)CCC4(C)C3CCC12C (centres unmarked) [OR-12866, 17-(4-Methoxy-1,4-dimethyl-pentyl)-10,13-dimethyl-hexadecahydro-cyclopenta[a]phenanthrene-3,6-diol]

EC50 [1, 4]: 4.1 µM | EC50 [2, 9]: 0.67 µM
Compound: CC(CCCO)C1CCC2C3CC(O)C4CC(O)CCC4(C)C3CCC12C (centres unmarked) [OR-12863, 17-(4-Hydroxy-1-methyl-butyl)-10,13-dimethyl-hexadecahydro-cyclopenta[a]phenanthrene-3,6-diol]

EC50 [1, 4]: 8.3 µM | EC50 [2, 9]: 0.21 µM
Compound: CC(CCC(C)(C)O)C1CCC2C3CC(O)C4CC(O)CCC4(C)C3CCC12C (centres unmarked) [OR-12865, 17-(4-Hydroxy-1,4-dimethyl-pentyl)-10,13-dimethyl-hexadecahydro-cyclopenta[a]phenanthrene-3,6-diol]

EC50 [1, 4]: > 20 µM | EC50 [2, 9]: > 100 µM
Compound: CC(CCC(=O)O)C1CCC2C1CCC1C3CCC(O)CC3C(O)CC21 (centres unmarked) [OR-412, 4-(3,6-Dihydroxy-hexadecahydro-cyclopenta[a]phenanthren-17-yl)-pentanoic acid]

Second part, the compound before the results:

Compound: CCCCc1ccc(S(=O)(=O)N(CC)c2ccc(C(O)(C(F)(F)F)C(F)(F)F)cc2)cc1 [OR-1047, 4-Butyl-N-ethyl-N-[4-(2,2,2-trifluoro-1-hydroxy-1-trifluoromethyl-ethyl)-phenyl]-benzenesulfonamide]
EC50 [1, 5]: 3.6 µM | EC50 [1, 6]: 3.6 µM | EC50 [2, 7]: 5.8 µM | EC50 [2, 8]: 5.8 µM | Emax [3]: < 5% | EC50 [3]: > 20 µM | specificity for RORγ versus LXRα [3]: more specific for RORγ than LXRα

Compound: COC(=O)CCC(C)C1CCC2C3CC(O)C4CC(O)CCC4(C)C3CCC12C (centres unmarked) [OR-942, 4-(3,6-Dihydroxy-10,13-dimethyl-hexadecahydro-cyclopenta[a]phenanthren-17-yl)-pentanoic acid methyl ester]
EC50 [1, 4]: 1.5 µM | activation of RORγ transcriptional activity ([1]; in the presence of one micromolar antagonist T0901317, CHO cells (FIG. 4A)): approximately 8 fold | EC50 ([2]; GST-RORγ and peptide K, in the presence of antagonist T0901317 (FIG. 5), read-out: estimated EC50 in biochemical assay, shifted by antagonist): 4 µM | EC50 ([2]; GST-RORγ and peptide K, without T0901317 (FIG. 5), read-out: estimated EC50 in biochemical assay): 0.4 µM | EC50 [2, 9]: 0.12 µM

Compound: O=C(O)CN(c1ccc(C(O)(C(F)(F)F)C(F)(F)F)cc1)S(=O)(=O)c1ccccc1 [OR-1046, {Benzenesulfonyl-[4-(2,2,2-trifluoro-1-hydroxy-1-trifluoromethyl-ethyl)-phenyl]-amino}-acetic acid]
EC50 [1, 5]: > 20 µM | EC50 [1, 6]: > 20 µM | EC50 [2, 7]: > 100 µM | EC50 [2, 8]: > 100 µM | Emax [3]: < 5% | EC50 [3]: > 100 µM

Compound: CC(CCC(=O)N1CCCCC1)C1CCC2C1CCC1C3CCC(O)CC3C(O)CC21 (centres unmarked) [OR-12869, 4-(3,6-Dihydroxy-hexadecahydro-cyclopenta[a]phenanthren-17-yl)-1-piperidin-1-yl-pentan-1-one]
EC50 [1, 4]: > 20 µM

Compound: CCN(c1ccc(C(O)(C(F)(F)F)C(F)(F)F)cc1)S(=O)(=O)c1ccc(Br)cc1 [OR-1048, 4-Bromo-N-ethyl-N-[4-(2,2,2-trifluoro-1-hydroxy-1-trifluoromethyl-ethyl)-phenyl]-benzene sulfonamide]
EC50 [1, 5]: 0.12 µM | EC50 [1, 6]: 0.12 µM | EC50 [2, 7]: 0.42 µM | EC50 [2, 8]: 0.42 µM | Emax [3]: > 80% | EC50 [3]: 0.57 µM | specificity for RORγ versus LXRα [3]: more specific for RORγ than LXRα

Compound: C[C@@H]1CC[C@@]2(OC1)O[C@H]1C[C@H]3[C@@H]4CC[C@H]5C[C@@H](O)CC[C@]5(C)[C@H]4C(=O)[C@@H](O)[C@]3(C)[C@H]1[C@@H]2C [OR-345, 5α, 20α, 22α, 25D-SPIROSTAN-3β, 12β-DIOL-11-ONE]
EC50 ([1]; Table 3, steroidal antagonists, read-out: Assay EC50 in micromolar transcriptional): 5 µM | EC50 ([2]; Table 3, peptide K and 1 μM OR-942, inhibition of the OR-942 baseline by 50%, read-out: Assay EC50 in micromolar biochemical): 12.7 µM
